The values below come from patent US6352989B1, “Nitrogenous heterocyclic derivatives and medicine thereof” (Eisai Co., Ltd., priority 1998, dated 2002).

As a reminder, the melting point is the temperature of the solid-liquid transition.

Molecule `CNc1nc(-c2cccc(NC(=O)c3ccccc3)c2)c2cc(OC)c(OC)cc2n1` [Example 1, 4-(3-Benzoylaminophenyl)-6,7-dimethoxy-2-methylaminoquinazoline] registered a melting point of 201 to 203 °C.
`CNc1nc(-c2cccc(NC(=O)c3ccccn3)c2)c2cc(OC)c(OC)cc2n1` [Example 3, 6,7-Dimethoxy-2-methylamino-4-[3-(2-pyridinecarbonylamino)phenyl]quinazoline]: the melting point lay within 175 to 177 °C.
Molecule `CNc1nc(-c2cccc(NC(=O)c3cccnc3)c2)c2cc(OC)c(OC)cc2n1` [Example 4, 6,7-Dimethoxy-2-methylamino-4-[3-(3-pyridinecarbonylamino)phenyl]quinazoline] showed a melting point of 251 to 253 °C.
`CNc1nc(-c2cccc(NC(=O)c3ccc4c(c3)OCO4)c2)c2cc(OC)c(OC)cc2n1` [Example 5, 6,7-Dimethoxy-2-methylamino-4-[3-(3,4-methylenedioxybenzoylamino)phenyl]quinazoline]: the melting point lay in the range of 205 to 207 °C.
`CNc1nc(-c2cccc(NC(=O)Cc3ccccc3)c2)c2cc(OC)c(OC)cc2n1` [Example 6, 6,7-Dimethoxy-2-methylamino 4-[3-(phenylacetylamino)phenyl]quinazoline] returned a melting point of 175 to 177 °C.
Consider `CNc1nc(-c2cccc(NC(=O)CCc3ccccc3)c2)c2cc(OC)c(OC)cc2n1` [Example 7, 6,7-Dimethoxy-2-methylamino-4-[3-(3-phenylpropanoylamino)phenyl]quinazoline], for which the melting point is 180 to 182 °C.
For `CNc1nc(-c2cccc(NC(=O)c3ccccc3Cl)c2)c2cc(OC)c(OC)cc2n1` [Example 8, 4-[3-(2-Chlorobenzoylamino)phenyl]-6,7-dimethoxy-2-methylaminoquinazoline], the melting point fell in the range of 197 to 199 °C.
The molecule `CNc1nc(-c2cccc(NC(=O)c3cccc(Cl)c3)c2)c2cc(OC)c(OC)cc2n1` [Example 9, 4-[3-(3-Chlorobenzoylamino)phenyl]-6,7-dimethoxy-2-methylaminoquinazoline] showed a melting point of 124 to 126 °C.
Molecule `CNc1nc(-c2cccc(NC(=O)c3ccc(Cl)cc3)c2)c2cc(OC)c(OC)cc2n1` [Example 10, 4-[3-(4-Chlorobenzoylamino)phenyl]-6,7-dimethoxy-2-methylaminoquinazoline] had a melting point of 193 to 195 °C.
`CNc1nc(-c2cccc(NC(=O)c3ccccc3OC)c2)c2cc(OC)c(OC)cc2n1` [Example 11, 6,7-Dimethoxy-4-[3-(2-methoxybenzoylamino)phenyl]-2-methylaminoquinazoline] displayed a melting point of 194 to 196 °C.
For `CNc1nc(-c2cccc(NC(=O)c3cccc(OC)c3)c2)c2cc(OC)c(OC)cc2n1` [Example 12, 6,7-Dimethoxy-4-[3-(3-methoxybenzoylamino)phenyl]-2-methylaminoquinazoline], the melting point is 193 to 195 °C.
In turn, `CNc1nc(-c2cccc(NC(=O)c3ccc(OC)cc3)c2)c2cc(OC)c(OC)cc2n1` [Example 13, 6,7-Dimethoxy-4-[3-(4-methoxybenzoylamino)phenyl]-2-methylaminoquinazoline] yielded a melting point of 219 to 221 °C.
In turn, `CNc1nc(-c2cccc(NC(=O)c3ccc(Cl)c(Cl)c3)c2)c2cc(OC)c(OC)cc2n1` [Example 15, 4-[3-(3,4-Dichlorobenzoylamino)phenyl]-6,7-dimethoxy-2-methylaminoquinazoline] came in with a melting point of 134 to 136 °C.
For `CNc1nc(-c2cccc(NC(=O)C3CC3)c2)c2cc(OC)c(OC)cc2n1` [Example 16, 4-(3-Cyclopropanoylaminophenyl)-6,7-dimethoxy-2-methylaminoquinazoline], the melting point lay in the range of 205 to 207 °C.
`CNc1nc(-c2cccc(NC(=O)c3cc(OC)c(OC)c(OC)c3)c2)c2cc(OC)c(OC)cc2n1` [Example 19, 6,7-Dimethoxy-4-methylamino-4-[3-(3,4,5-trimethoxybenzoylamino)phenyl]quinazoline]: the melting point fell in the range of 122 to 124 °C.
Under `CNc1nc(-c2cccc(NC(=O)c3ccc(OCc4ccccc4)cc3)c2)c2cc(OC)c(OC)cc2n1` [Example 20, 4-[3-(4-Benzyloxybenzoylamino)phenyl]-6,7-dimethoxy-2-methylaminoquinazoline] stands 110 to 112 °C.
With `CNc1nc(-c2cccc(NC(=O)c3cccc(OCc4ccccc4)c3)c2)c2cc(OC)c(OC)cc2n1` [Example 22, 4-[3-(3-Benzyloxybenzoylamino)phenyl]-6,7-dimethoxy-2-methylaminoquinazoline], the melting point fell in the range of 110 to 112 °C.
In the case of `CNc1nc(-c2cccc(NC(=O)c3cccc(O)c3)c2)c2cc(OC)c(OC)cc2n1` [Example 23, 6,7-Dimethoxy-4-[-(3-hydroxybenzoylamino)phenyl]-2-methylaminoquinazoline], the melting point is 265 to 267 °C.
Under `CNc1nc(-c2cccc(NC(=O)c3ccccc3OCc3ccccc3)c2)c2cc(OC)c(OC)cc2n1` [Example 24, 4-[3-(2-Benzyloxybenzoylamino)phenyl]-6,7-dimethoxy-2-methylaminoquinazoline] stands 192 to 194 °C; under `CNc1nc(-c2cccc(NC(=O)c3ccccc3O)c2)c2cc(OC)c(OC)cc2n1` [Example 25, 6,7-Dimethoxy-4-[3-(2-hydroxybenzoylamino)phenyl]-2-methylaminoquinazoline], 212 to 214 °C; under `CNc1nc(-c2cccc(NC(=O)c3ccc(SC)cc3)c2)c2cc(OC)c(OC)cc2n1` [Example 26, 6,7-Dimethoxy-2-methylamino-4-[3-(4-methylthiobenzoylamino)phenyl]quinazoline], 209 to 211 °C.
`CNc1nc(-c2cccc(NC(=O)c3ccc([S+](C)[O-])cc3)c2)c2cc(OC)c(OC)cc2n1` (stereo not drawn) [Example 27, 6,7-Dimethoxy-2-methylamino-4-[3-(4-methylsulfinylbenzoylamino)phenyl]quinazoline] returned a melting point of 246 to 248 °C.
`CNc1nc(-c2cccc(NC(=O)c3ccc(S(C)(=O)=O)cc3)c2)c2cc(OC)c(OC)cc2n1` [Example 28, 6,7-Dimethoxy-2-methylamino-4-[3-(4-methylsulfonylbenzoylamino)phenyl]quinazoline] gave a melting point of 277 to 279 °C.
Turning to `CNc1nc(-c2cccc(NC(=O)c3ccc(Cl)nc3)c2)c2cc(OC)c(OC)cc2n1` [Example 29, 4-[3-(6-Choloronicotinoylamino)phenyl]-6,7-dimethoxy-2-methylaminoquinazoline], the melting point was in the range of 157 to 159 °C.
Turning to `CNc1nc(-c2cccc(NC(=O)c3ccnc(Cl)c3)c2)c2cc(OC)c(OC)cc2n1` [Example 33, 4-[3-(2-Chloroisonicotinoylamino)phenyl]-6,7-dimethoxy-2-methylaminoquinazoline], the melting point was 151 to 153 °C.
In turn, `CNc1nc(-c2cccc(NS(=O)(=O)c3ccccc3)c2)c2cc(OC)c(OC)cc2n1` [Example 35, 4-(3-Benzenesulfonamidephenyl)-6,7-dimethoxy-2-methylaminoquinazoline] had a melting point of 230 to 232 °C.
`CNc1nc(-c2cccc(NC(=O)Nc3ccccc3)c2)c2cc(OC)c(OC)cc2n1` [Example 36, 6,7-Dimethoxy-2-methylamino-4-[3-(3-phenylureido)phenyl]quinazoline] had a melting point of 218 to 220 °C.
Molecule `CNc1nc(-c2cccc(N3C(=O)c4ccccc4C3=O)c2)c2cc(OC)c(OC)cc2n1` [Example 37, 6,7-Dimethoxy-2-methylamino-4-(3-phthalimidephenyl) quinazoline] gave a melting point of 280 to 282 °C.
The molecule `CNc1nc(-c2cccc(NCc3ccccc3)c2)c2cc(OC)c(OC)cc2n1` [Example 38] showed a melting point of 146 to 148 °C.
Turning to `CCCN(Cc1ccccc1)c1cccc(-c2nc(NC)nc3cc(OC)c(OC)cc23)c1` [Example 41, 4-[3-(N-benzyl-N-propylamino)phenyl]-6,7-dimethoxy-2-methylaminoquinazoline], the melting point lay within 75 to 77 °C.
With `CNc1nc(-c2cccc(N(C)C(=O)c3ccccc3)c2)c2cc(OC)c(OC)cc2n1` [Example 42, 4-[3-(N-benzoyl-N-methylamino)phenyl]-6,7-dimethoxy-2-methylaminoquinazoline], the melting point is 198 to 200 °C.
As to `CNc1nc(-c2cccc(-n3cccc3)c2)c2cc(OC)c(OC)cc2n1` [Example 43, 6,7-Dimethoxy-2-methylamino-4-[3-(1-pyrrolyl)phenyl]quinazoline], the melting point was 199 to 201 °C.
`CNc1nc(-c2cccc(-c3ccccc3)c2)c2cc(OC)c(OC)cc2n1` [Example 46, 4-(3-Biphenylyl)-6,7-dimethoxy-2-methylaminoquinazoline] yielded a melting point of 183 to 185 °C.
`CNc1nc(-c2cccc(-c3cccnc3)c2)c2cc(OC)c(OC)cc2n1` [Example 47, 6,7-Dimethoxy-2-methylamino-4-[3-(3-pyridyl)phenyl]quinazoline]: the melting point was 186 to 188 °C.
Under `CNc1nc(-c2cccc(-c3ccc(C)c(C)c3)c2)c2cc(OC)c(OC)cc2n1` [Example 48, 6,7-Dimethoxy-4-(3′,4′-dimethyl-3-biphenylyl)-2-methylaminoquinazoline] stands 149 to 151 °C; under `CNc1nc(-c2cccc(-c3ccc4nccn4c3)c2)c2cc(OC)c(OC)cc2n1` [Example 50, 6,7-Dimethoxy-4-[3-(imidazo[1.2-a]pyridine-6-yl)phenyl]-2-methylaminoquinazoline], 237 to 239 °C.
The molecule `CNc1nc(-c2cccc(-c3cccc([S+](C)[O-])c3)c2)c2cc(OC)c(OC)cc2n1` (stereo not drawn) [Example 55, 6,7-Dimethoxy-2-methylamino-4-(3-methylsulfinyl-3-biphenylyl)quinazoline] registered a melting point of 163 to 165 °C.
As to `CNc1nc(-c2cccc(-c3cncc(OC)c3)c2)c2cc(OC)c(OC)cc2n1` [Example 57, 6,7-Dimethoxy-4-[3-(5-methoxy-3-pyridyl)phenyl]-2-methylaminoquinazoline], the melting point was 225 to 227 °C.
The molecule `CNc1nc(-c2cccc(-c3cncc([S+](C)[O-])c3)c2)c2cc(OC)c(OC)cc2n1` (stereo not drawn) [Example 59, 6,7-Dimethoxy-2-methylamino-4-[3-(5-methylsulfinyl-3-pyridyl)phenyl]quinazoline] had a melting point of 208 to 210 °C.
